Experimental data published in publication PMC3832616, “Crystal Structure of the Pleckstrin Homology Domain from the Ceramide Transfer Protein: Implications for Conformational Change upon Ligand Binding” (PLoS ONE, 2013).

Biological target: T1, Ceramide transfer protein (CERT) (Homo sapiens, UniProt Q9Y5P4)
T1 construct: gene CERT1; PH domain, residues 20–122 (three extra amino acids G-E-F before residue 20)
T1 sequence (Q9Y5P4 20-122): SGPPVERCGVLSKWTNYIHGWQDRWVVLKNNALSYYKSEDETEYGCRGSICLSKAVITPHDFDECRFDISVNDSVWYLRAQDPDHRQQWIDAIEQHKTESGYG
Experiment: […]-1H HSQC NMR chemical shift titration, global fit
Format: binding

Q: How did the Kd turn out when CCCCCC(=O)OC[C@H](COP(=O)(O)O[C@H]1[C@H](O)[C@@H](O)[C@H](OP(=O)(O)O)[C@@H](O)[C@H]1O)OC(=O)CCCCC [diC6-PtdIns(4)P] was run?
A: Its Kd is 470 ± 14 µM.
